Experimental data published in publication PMC11357992, “Non-invasive mapping of systemic neutrophil dynamics upon cardiovascular injury” (Nature Cardiovascular Research, 2023).
Values joined by “and” are separate entries in the source; they are usually repeats but may differ in a detail not shown here. Identical values can stand only once. Where no end group is shown, it is not given here. Side-chain parts run from the residue outwards. rhodamine‑labelled PEGylated perfluoro‑15‑crown‑5 ether nanoemulsion = not defined here; carboxyfluorescein = N-terminal fluorescence label (CF)

Columns and labels:
human neutrophils = experiment: ROS release of human neutrophils; assay type: cell-based; conditions: for ROS release of human neutrophils, raw data (panel C): single samples #1-#3
Experimental: A total of 5 × 10^6 human neutrophils were incubated in 10 ml DMEM with or without 1 µg ml^−1 peptide or 50 µl ml^−1 emulsion. At distinct time points, cells were pelleted, and 1 ml of the supernatant was immediately frozen at −80 °C. Subsequently, the amount of ROS was determined by chemiluminescence analysis. […] After centrifugation, 80 µl supernatant was used to determine ROS by UPLC measurement (Waters Acquity Bio H-Class with 2475 FLD Detector). To this end, gradients A and B (0.1% trifluoroacetic acid in 1 l water and acetonitrile, respectively) at a flow rate of 0.26 ml min^−1 at 17 °C were used. Dihydroethidium was excited and detected at 480 nm and 580 nm, respectively.

[1] = test system: neutrophils from explanted failing human hearts; experiment: hNPPFC uptake by neutrophils from explanted human hearts, flow cytometry; assay type: cell-based; conditions: 10 µl hNPPFCs, 30 min, 37 °C
Experimental: During orthotopic heart-transplant surgery in patients suffering from terminal heart failure, a tissue specimen of about ~5 g was excised from the apex of the failing heart immediately after explantation. Tissues were immediately transferred to iced BIOPS buffer as described previously. For subsequent isolation of immune cells, heart samples were cut into small pieces and digested with the Multi Tissue Dissociation Kit 2 (Miltenyi; ‘adult rat heart’ protocol) by incubating for 40 min at 37 °C with the specified enzyme mix using the 37C_Multi_G program by gentleMACS. Afterward, 7.5 ml DMEM with 20% FCS was added to stop enzymatic digestion. The sample was applied to a 70-µm cell filter and washed with 3 ml DMEM, followed by centrifugation for 5 min at 300g. The supernatant was discarded, and cells were resuspended in 1 ml DMEM and incubated with 10 µl ^hNPPFCs for 30 min at 37 °C on a vertical shaker. Afterward, cells were washed twice with MACS buffer and stained for CD45, CD11b and CD66b. DAPI staining was performed for exclusion of dead cells. The uptake of ^hNPPFCs into neutrophils (CD45^+CD11b^+CD66b^+) was determined by flow cytometry.

[2] = Liver serum markers after PFC injection; assay type: in vivo, mouse; conditions: i.v. over 3 consecutive days, 24 h after last injection
Experimental: ^ConPFCs, ^mNPPFCs (each at 1 mM per kg BW) or saline were injected i.v. over 3 consecutive days. Twenty-four hours after the last injection, mice were killed, and blood samples were withdrawn to determine GLDH, AST, ALP, ALT and bilirubin levels by standard clinical procedures. Furthermore, the liver and spleen were dissected, fixed in formalin and snap frozen. Subsequently, 4-µm cryosections were cut and stained with hematoxylin and eosin as described previously.
Extended Data Fig. 3 Assessment of ^mNPPFC/^ConPFC biodistribution, liver serum markers and histology of liver and spleen. a, Biodistribution of intravenously injected ^mNPPFCs was determined via ^19F MRI measurements at distinct time points after injection (1, 3, 6 and 24 h after injection). Shown are quantification of fluorine signal intensities in the blood, liver and spleen indicating a fast wash-out from the blood accompanied by a strong influx into the liver while signal intensities in the spleen were constant over the entire observation period; a.u. = arbitrary units. b, Serum levels of GLDH (glutamate dehydrogenase), AST (aspartate aminotransferase), ALP (alkaline phosphatase), ALT (alanine aminotransferase) and bilirubin after intravenous application of NaCl as control, ^ConPFCs or ^mNPPFCs. c + d, 4 µm sections of liver (C) and spleen (D) stained with hematoxylin and eosin. Organs were excised and processed for histology 24 h post injection of NaCl (upper row), ^ConPFCs (middle), ^mNPPFCs (lower). Representative liver/spleen images of organs from three different animals are shown. Scale bars indicate 100 µm. Data are mean values ± SD of n = 6 (a), n = 4-6 (b) and n = 6 (c + d) independent experiments. Source data

[3] = test system: circulating lymphocytes, monocytes and neutrophils; experiment: In vivo mNPPFC uptake by circulating immune cells 1 h after injection (Matrigel-LPS or PBS); set-up: species or system mouse; in vivo uptake by circulating lymphocytes, Ctrl, raw data / in vivo uptake by circulating lymphocytes, LPS, raw data / in vivo uptake by circulating monocytes, Ctrl, raw data / in vivo uptake by circulating monocytes, LPS, raw data / in vivo uptake by circulating neutrophils, Ctrl, raw data / in vivo uptake by circulating neutrophils, LPS, raw data: unit not given here
Experimental: To induce defined inflammatory foci, we adopted a recently developed model of localized subcutaneous inflammation. To this end, ice-cold Matrigel (Corning) was doped with LPS (1 µg µl^−1; Salmonella typhimurium, Sigma-Aldrich) and subcutaneously (s.c.) implanted into the neck of the mice. Twenty-four hours after implanting the plug, neutrophils were isolated from the blood and incubated ex vivo with ^mNPPFCs or ^ConPFCs. In separate experiments, 24 h after implantation, ^mNPPFCs or ^ConPFCs were injected intravenously, and immune cells were isolated from the blood. In further experiments, 1 d after plug injection, mice received 1 mmol per kg BW ^mNPPFCs, and, 24 h later, the bone marrow was analyzed by ^1H/^19F MRI. Thereafter, mice were killed, and neutrophils were isolated from the bone marrow for determination of cell numbers. In each case, immune cells were analyzed by flow cytometry.
Mice were kept in anesthesia (1.5% isoflurane) on a warming plate, and 1 mmol per kg BW ^mNPPFCs or ^ConPFCs were injected i.v. into the tail vein. One hour after injection, blood was collected from the vena cava, and immune cells were isolated. For in vivo uptake studies in the bone marrow, mice were treated as described above and killed 2 h later to isolate neutrophils from the bone marrow and analyzed by flow cytometry.

[4] = mouse, Ctrl (PBS), 1 h after injection, single animals #1-#5
[5] = mouse, Matrigel-LPS, 1 h after injection, single animals #1-#3

Substance	impact on human neutrophil ROS release (human neutrophils; 1 µg ml^−1 peptide or 50 µl ml^−1 emulsion)	ROS release of human neutrophils, raw data (panel C) (human neutrophils; time point 1)	ROS release of human neutrophils, raw data (panel C) (human neutrophils; time point 3)	ROS release of human neutrophils, raw data (panel C) (human neutrophils; time point 6)	ROS release of human neutrophils, raw data (panel C) (human neutrophils; time point 24)	labeling of neutrophils freshly isolated from explanted failing human hearts [1]	adverse side effects (liver serum markers, histology of liver and spleen) [2]	incorporation into circulating neutrophils from LPS-challenged versus healthy mice ([3]; 1 h after intravenous application)	in vivo uptake by circulating lymphocytes, Ctrl, raw data [3, 4]	in vivo uptake by circulating monocytes, Ctrl, raw data [3, 4]	in vivo uptake by circulating neutrophils, Ctrl, raw data [3, 4]	in vivo uptake by circulating lymphocytes, LPS, raw data [3, 5]	in vivo uptake by circulating monocytes, LPS, raw data [3, 5]	in vivo uptake by circulating neutrophils, LPS, raw data [3, 5]
hNPPFCs: PEGylated rhodamine-labeled perfluorocarbon nanoemulsion coupled with human neutrophil-specific peptide hNP (carboxyfluorescein-DLVTSKLQVGGGC; also: C-terminal Cys coupled via maleimide-PEG2000-DSPE to rhodamine-labelled perfluorocarbon nanoemulsion)	neither ^hNPPFCs nor the free peptide had any impact on human neutrophil ROS release	1725.82 and 1480.41 and 1396.67	1373.8 and 1515.29 and 1254.87	2382.05 and 1474.31 and 1302.37	1643.61 and 1455.28	could be labeled	–	–	–	–	–	–	–	–
mNPPFCs: PEGylated rhodamine-labeled perfluoro-15-crown-5 ether nanoemulsion (maleimide PFCs) coupled with murine neutrophil-specific peptide mNP (carboxyfluorescein-DFYKPMPNLRITGGGC([maleimide‑PEG2000‑DSPE-rhodamine‑labelled PEGylated perfluoro‑15‑crown‑5 ether nanoemulsion]); reading uncertain; also: printed as DFYKPMPNLRIT-GGG-C)	–	–	–	–	–	–	neither analysis of liver serum markers (GLDH, AST, ALP, ALT, bilirubin) nor histological examination of the liver and spleen revealed any evidence for adverse side effects	much stronger	51.1 and 39.2 and 30.6 and 43.1 and 40.6	176 and 127 and 129 and 184 and 145	400 and 394 and 676 and 677 and 545	38.8 and 38.9 and 26.2	150 and 223 and 453	3695 and 4794 and 6465
